Results taken from patent publication US10024868B2, “Identification, optimization and use of shared HLA-B*0702 epitopes for immunotherapy” (Vaxon Biotech, priority 2009, dated 2018).

What was measured:
[1] = test system: T2-B7 targets loaded with peptide; experiment: CTL induction in vivo in HLA-B*0702 transgenic mice, Cr51 cytotoxic assay; conditions: for Immunogenicity: X mice developed a specific response for a total of Y mice vaccinated, 100 μg peptide subcutaneously in IFA; for Native peptide cross recognition, MAGE-A A / Native peptide cross recognition, MAGE-A I / Native peptide cross recognition, MAGE-A V: X/Y mice; for Native peptide cross recognition, MAGE-A A: CTL tested against T2-B7 targets loaded with native peptide MAGE-A A; for Native peptide cross recognition, MAGE-A I: CTL tested against T2-B7 targets loaded with native peptide MAGE-A I; for Native peptide cross recognition, MAGE-A V: CTL tested against T2-B7 targets loaded with native peptide MAGE-A V; for Cross recognition of the native peptides by induced CTLs (in words): target cells loaded with native cryptic peptides; for Immunogenicity (in words): vaccinated HLA-B*0702 transgenic mice
Experimental: The HLA-B7 H-2 class-I knockout mice were previously described (Rohrlich et al., 2003).
CTL Induction In Vivo in HLA-B*0702 Transgenic Mice.
Mice were injected subcutaneously with 100 μg of peptide emulsified in Incomplete Freund's Adjuvant (IFA) in the presence of 150 μg of the I-A^b restricted HBVcore128 T helper epitope (TPPAYRPPNAPIL, SEQ ID NO: 173). After 11 days, 5×10^7 spleen cells were stimulated in vitro with peptide (10 μM). On day 6 of culture, the bulk responder populations were tested for specific cytotoxicity.
Targets were labelled with 100 μCi of Cr^51 for 60 min, plated in 96-well V-bottomed plates (3×10^3 cell/well in 100 μL of RPMI 1640 medium) and, when necessary, pulsed with peptides (1 μM) at 37° C. for 2 hours. Effectors were then added in the wells and incubated at 37° C. for 4 hours. Percentage of specific lysis was determined as: % Lysis=(Experimental Release−Spontaneous Release)/(Maximal Release−Spontaneous Release)×100.

[2] = target: T1, HLA-B*0702 (Homo sapiens, UniProt P01889); experiment: Measurement of peptide relative affinity to HLA-B*0702 (T2-B7 cells, ME-1 mAb staining); type: binding; conditions: for RA (Relative Affinity to HLA-B*0702): concentration inducing 20% of HLA-B*0702 expression relative to reference peptide CMV265-274, T2-B7 cells, 16 hours, 37° C.
T1 construct: expressed in transfected cells; host or cells: human T2-B7 cells (T2 transfected with HLA-B*0702)
Experimental: Measurement of Peptide Relative Affinity to HLA-B*0702.
The protocol used has been described previously (Rohrlich et al., 2003). Briefly, T2-B7 cells were incubated at 37° C. for 16 hours with peptides concentrations ranging from 100 μM to 0.1 μM, and then stained with ME-1 monoclonal antibody (mAb) to quantify the surface expression of HLA-B*0702. For each peptide concentration, the HLA-B*0702 specific staining was calculated as the percentage of staining obtained with 100 μM of the reference peptide CMV265-274 (R10V; RPHERNGFTV, SEQ ID NO: 172). The relative affinity (RA) was determined as: RA=(Concentration of each peptide that induces 20% of HLA-B*0702-expression/Concentration of the reference peptide that induces 20% of HLA-B*0702 expression).

Sequence	Immunogenicity [1]	Native peptide cross recognition, MAGE-A A [1]	Native peptide cross recognition, MAGE-A I [1]	Native peptide cross recognition, MAGE-A V [1]	Cross recognition of the native peptides by induced CTLs (in words) [1]	Immunogenicity (in words) [1]	Binding to HLA-B*0702 molecules (in words) [2]	RA (Relative Affinity to HLA-B*0702) [2]
APRALVETL (MAGE-A A1L9 peptide)	6/11	MAGE-A A (1/8)	MAGE-A I (0/3)	MAGE-A V (0/3)	not able to cross-recognize the native peptides	immunogenic	able to bind to MHC	+ ((+) 5 < RA < 10)
GPRALAETS (HLA-B7 restricted native peptide) [MAGE-A A]	–	–	–	–	–	–	–	− ((−) means RA > 10)
GPRALIETS (HLA-B7 restricted native peptide) [MAGE-A I]	–	–	–	–	–	–	–	− ((−) means RA > 10)
GPRALVETL (HLA-B7 restricted optimized peptide) [MAGE-A L9]	18/18	MAGE-A A (3/8)	MAGE-A I (3/5)	MAGE-A V (4/5)	able to recognize a target cell loaded with each of the native cryptic peptides	strongly immunogenic	–	–
GPRALVETS (HLA-B7 restricted native peptide) [MAGE-A V]	–	–	–	–	–	–	–	− ((−) means RA > 10)
